Publication PMC5218480 (PLoS ONE, 2017)

System: MV-4-11 cells
Test: Gene expression microarray analysis (Affymetrix PrimeView) and GSEA
Assay type: cell-based, human
Design: RFU PODN (11730768_x_at) / Fold change /veh PODN (11730768_x_at) / RFU LINC00158 (11744669_a_at) / Fold change /veh LINC00158 (11744669_a_at) / RFU DUSP10 (11751237_a_at) / Fold change /veh DUSP10 (11751237_a_at) / RFU ID3 (11757404_x_at) / Fold change /veh ID3 (11757404_x_at) / RFU PLEKHG5 (11737974_s_at) / Fold change /veh PLEKHG5 (11737974_s_at) / RFU LRRC4B (11730491_at) / Fold change /veh LRRC4B (11730491_at) / RFU GIMAP4 (11747438_a_at) / Fold change /veh GIMAP4 (11747438_a_at) / RFU KRT8 (11758183_x_at) / Fold change /veh KRT8 (11758183_x_at) / RFU CNN1 (11734310_a_at) / Fold change /veh CNN1 (11734310_a_at) / RFU VPS37D (11726825_at) / Fold change /veh VPS37D (11726825_at) / RFU C10orf10 (11716522_x_at) / Fold change /veh C10orf10 (11716522_x_at) / RFU KIR2DL2 /// KIR2DL4 /// KIR2DL5A /// KIR2DL5B /// KIR2DS1 /// KIR2DS2 /// KIR2DS3 /// KIR2DS4 /// KIR3DL3 /// KIR3DL3 /// KIR3DS1 (11738374_at) / Fold change /veh KIR2DL2 /// KIR2DL4 /// KIR2DL5A /// KIR2DL5B /// KIR2DS1 /// KIR2DS2 /// KIR2DS3 /// KIR2DS4 /// KIR3DL3 /// KIR3DL3 /// KIR3DS1 (11738374_at) / RFU C1QL1 (11718748_at) / Fold change /veh C1QL1 (11718748_at) / RFU TMPRSS4 (11747572_a_at) / Fold change /veh TMPRSS4 (11747572_a_at) / RFU HAMP (11756126_x_at) / Fold change /veh HAMP (11756126_x_at) / RFU RNFT2 (11725882_a_at) / Fold change /veh RNFT2 (11725882_a_at) / RFU NR4A2 (11747474_a_at) / Fold change /veh NR4A2 (11747474_a_at) / RFU ABCC12 (11746883_a_at) / Fold change /veh ABCC12 (11746883_a_at) / RFU TMEM136 (11760407_x_at) / Fold change /veh TMEM136 (11760407_x_at) / RFU CLDN22 /// WWC2 (11732394_at) / Fold change /veh CLDN22 /// WWC2 (11732394_at) / RFU HLA-DPB1 (11760878_x_at) / Fold change /veh HLA-DPB1 (11760878_x_at) / RFU SPINT1 (11716480_a_at) / Fold change /veh SPINT1 (11716480_a_at) / RFU GAP43 (11754022_s_at) / Fold change /veh GAP43 (11754022_s_at) / RFU A4GNT (11735810_at) / Fold change /veh A4GNT (11735810_at) / RFU PRB3 (11715151_x_at) / Fold change /veh PRB3 (11715151_x_at) / RFU TUBB4B (11761932_at) / Fold change /veh TUBB4B (11761932_at) / RFU CAPN14 (11732068_a_at) / Fold change /veh CAPN14 (11732068_a_at) / RFU TMCC2 (11721928_a_at) / Fold change /veh TMCC2 (11721928_a_at) / RFU IRGQ (11745062_a_at) / Fold change /veh IRGQ (11745062_a_at) / RFU FAM174B (11720279_a_at) / Fold change /veh FAM174B (11720279_a_at) / RFU TMPRSS4 (11748680_a_at) / Fold change /veh TMPRSS4 (11748680_a_at) / RFU FAM212B (11763350_a_at) / Fold change /veh FAM212B (11763350_a_at) / RFU PLEKHG5 (11743358_a_at) / Fold change /veh PLEKHG5 (11743358_a_at) / RFU ZSCAN30 (11745921_a_at) / Fold change /veh ZSCAN30 (11745921_a_at) / RFU CMKLR1 (11741424_a_at) / Fold change /veh CMKLR1 (11741424_a_at) / RFU LOC101060620 /// MAPK8IP1 (11723275_at) / Fold change /veh LOC101060620 /// MAPK8IP1 (11723275_at) / RFU SPTSSB (11747773_x_at) / Fold change /veh SPTSSB (11747773_x_at) / RFU PRSS12 (11739890_at) / Fold change /veh PRSS12 (11739890_at) / RFU BIN1 (11741810_x_at) / Fold change /veh BIN1 (11741810_x_at) / RFU WNT11 (11732464_a_at) / Fold change /veh WNT11 (11732464_a_at) / RFU C10orf10 (11716521_a_at) / Fold change /veh C10orf10 (11716521_a_at) / RFU C5orf56 (11738089_at) / Fold change /veh C5orf56 (11738089_at) / RFU CYB561 (11721691_x_at) / Fold change /veh CYB561 (11721691_x_at) / RFU ANKRD19P (11752326_a_at) / Fold change /veh ANKRD19P (11752326_a_at) / RFU OR2T12 /// OR2T33 /// OR2T8 (11738714_s_at) / Fold change /veh OR2T12 /// OR2T33 /// OR2T8 (11738714_s_at) / RFU VCAN (11748164_a_at) / Fold change /veh VCAN (11748164_a_at) / RFU JSRP1 (11732532_at) / Fold change /veh JSRP1 (11732532_at) / RFU KRTAP10-11 (11738290_x_at) / Fold change /veh KRTAP10-11 (11738290_x_at) / RFU MYO3A (11730013_a_at) / Fold change /veh MYO3A (11730013_a_at) / RFU EBF3 (11725865_a_at) / Fold change /veh EBF3 (11725865_a_at) / RFU CAMK2N1 (11719241_x_at) / Fold change /veh CAMK2N1 (11719241_x_at) / RFU C5orf56 (11738088_a_at) / Fold change /veh C5orf56 (11738088_a_at) / RFU OLFML3 (11715873_a_at) / Fold change /veh OLFML3 (11715873_a_at) / RFU LOC100653217 /// NTM (11731650_a_at) / Fold change /veh LOC100653217 /// NTM (11731650_a_at) / RFU MAPK11 (11762145_a_at) / Fold change /veh MAPK11 (11762145_a_at) / RFU FIZ1 (11724087_x_at) / Fold change /veh FIZ1 (11724087_x_at) / RFU OASL (11726364_x_at) / Fold change /veh OASL (11726364_x_at) / RFU SOX15 (11748057_x_at) / Fold change /veh SOX15 (11748057_x_at) / RFU CD79A (11719716_a_at) / Fold change /veh CD79A (11719716_a_at) / RFU HIST1H1D (11736915_at) / Fold change /veh HIST1H1D (11736915_at) / RFU CASKIN2 (11723855_a_at) / Fold change /veh CASKIN2 (11723855_a_at) / RFU LOC730098 (11760151_x_at) / Fold change /veh LOC730098 (11760151_x_at) / RFU OR4N2 (11742367_at) / Fold change /veh OR4N2 (11742367_at) / RFU PRRT2 (11749266_a_at) / Fold change /veh PRRT2 (11749266_a_at) / RFU SNX32 (11753110_a_at) / Fold change /veh SNX32 (11753110_a_at) / RFU CDHR5 (11726645_a_at) / Fold change /veh CDHR5 (11726645_a_at) / RFU RCAN1 (11760418_a_at) / Fold change /veh RCAN1 (11760418_a_at) / RFU FAM167A (11723789_a_at) / Fold change /veh FAM167A (11723789_a_at) / RFU FAM26E (11764081_at) / Fold change /veh FAM26E (11764081_at) / RFU ISYNA1 (11749810_s_at) / Fold change /veh ISYNA1 (11749810_s_at) / RFU ACY1 (11761880_at) / Fold change /veh ACY1 (11761880_at) / RFU 11764098_at / Fold change /veh 11764098_at / RFU SAMD14 (11745864_x_at) / Fold change /veh SAMD14 (11745864_x_at) / RFU NPB (11741838_a_at) / Fold change /veh NPB (11741838_a_at) / RFU TMPRSS6 (11731388_a_at) / Fold change /veh TMPRSS6 (11731388_a_at) / RFU KRTAP10-2 (11738614_at) / Fold change /veh KRTAP10-2 (11738614_at) / RFU ARHGAP8 /// PRR5-ARHGAP8 (11727945_x_at) / Fold change /veh ARHGAP8 /// PRR5-ARHGAP8 (11727945_x_at) / RFU KRTAP5-7 /// NADSYN1 (11734609_at) / Fold change /veh KRTAP5-7 /// NADSYN1 (11734609_at) / RFU RASL12 (11751679_a_at) / Fold change /veh RASL12 (11751679_a_at) / RFU CDKN2B (11736163_a_at) / Fold change /veh CDKN2B (11736163_a_at) / RFU PRF1 (11729649_at) / Fold change /veh PRF1 (11729649_at) / RFU, ZNF638 /// ZNF638-IT1 / Fold change vs veh, ZNF638 /// ZNF638-IT1 / RFU, PANK3 / Fold change vs veh, PANK3 / RFU, SH3YL1 / Fold change vs veh, SH3YL1 / RFU, ZEB2 / Fold change vs veh, ZEB2 / RFU, NRIP1 / Fold change vs veh, NRIP1 / RFU, PTTG1IP / Fold change vs veh, PTTG1IP / RFU, CAPN2 / Fold change vs veh, CAPN2 / RFU, MED14 / Fold change vs veh, MED14 / RFU, SNORA58 / Fold change vs veh, SNORA58 / RFU, C1orf63 / Fold change vs veh, C1orf63 / RFU, LRRFIP1 / Fold change vs veh, LRRFIP1 / RFU, NDUFAF7 / Fold change vs veh, NDUFAF7 / RFU, SLC12A2 / Fold change vs veh, SLC12A2 / RFU, IBTK / Fold change vs veh, IBTK / RFU, ESF1 / Fold change vs veh, ESF1 / Fold change vs veh, TMEM50B / RFU, TAOK1 / Fold change vs veh, TAOK1 / RFU, ACBD3 / Fold change vs veh, ACBD3 / RFU, TMA16 / Fold change vs veh, TMA16 / RFU, RWDD3 / Fold change vs veh, RWDD3 / RFU, BCAT1 / Fold change vs veh, BCAT1 / RFU, EDEM3 / Fold change vs veh, EDEM3 / RFU, TMEM33 / Fold change vs veh, TMEM33 / RFU, WDR75 / Fold change vs veh, WDR75 / RFU, AHCTF1 / Fold change vs veh, AHCTF1 / RFU, TFRC / Fold change vs veh, TFRC / RFU, ZDHHC17 / Fold change vs veh, ZDHHC17 / RFU, NOM1 / Fold change vs veh, NOM1 / RFU, ARL8B / Fold change vs veh, ARL8B / RFU, ZBTB11 / Fold change vs veh, ZBTB11 / RFU, TAMM41 / Fold change vs veh, TAMM41 / RFU, KIAA1704 /// LOC100996395 / Fold change vs veh, KIAA1704 /// LOC100996395 / RFU, ING1 / Fold change vs veh, ING1 / RFU, TRMT61B / Fold change vs veh, TRMT61B / RFU, FUBP3 / Fold change vs veh, FUBP3 / RFU, TP53 / Fold change vs veh, TP53 / RFU, TNKS2 / Fold change vs veh, TNKS2 / RFU, ZFP14 / Fold change vs veh, ZFP14 / RFU, ACTR2 / Fold change vs veh, ACTR2 / RFU, PPP3R1 / Fold change vs veh, PPP3R1 / RFU, PIK3R1 / Fold change vs veh, PIK3R1 / RFU, HNRNPA1 / Fold change vs veh, HNRNPA1 / RFU, RNF170 / Fold change vs veh, RNF170 / RFU, ZNF28 / Fold change vs veh, ZNF28 / RFU, RNGTT / Fold change vs veh, RNGTT / RFU, OGT / Fold change vs veh, OGT / RFU, BRD1 / Fold change vs veh, BRD1 / RFU, MARS / Fold change vs veh, MARS / RFU, ZNF655 / Fold change vs veh, ZNF655 / RFU, FAHD1 / Fold change vs veh, FAHD1 / RFU, BDP1 / Fold change vs veh, BDP1 / RFU, LRRCC1 / Fold change vs veh, LRRCC1 / RFU, ARID1A / Fold change vs veh, ARID1A / RFU, ZNF146 / Fold change vs veh, ZNF146 / RFU, ZNF330 / Fold change vs veh, ZNF330 / RFU, GPN3 / Fold change vs veh, GPN3 / RFU, C9orf123 / Fold change vs veh, C9orf123 / RFU, N4BP2L2 / Fold change vs veh, N4BP2L2 / RFU, ARFIP1 / Fold change vs veh, ARFIP1 / RFU, FAM179B / Fold change vs veh, FAM179B / RFU, BCL10 / Fold change vs veh, BCL10 / RFU, UHRF1BP1L / Fold change vs veh, UHRF1BP1L / RFU, BET1 / Fold change vs veh, BET1 / RFU, CNOT2 / Fold change vs veh, CNOT2 / RFU, ZNF268 / Fold change vs veh, ZNF268 / Fold change vs veh, ZNF507 / RFU, DGCR2 / Fold change vs veh, DGCR2 / RFU, WDSUB1 / Fold change vs veh, WDSUB1 / Fold change vs veh, HSP90B1 /// MIR3652 / RFU, ADSS / Fold change vs veh, ADSS / RFU, GK / Fold change vs veh, GK / RFU, ZNF148 / Fold change vs veh, ZNF148 / RFU, TAF9 / Fold change vs veh, TAF9 / RFU, SLC1A5 / Fold change vs veh, SLC1A5 / RFU, SLMO2 / Fold change vs veh, SLMO2 / RFU, ABCC4 / Fold change vs veh, ABCC4 / RFU, LOC101060439 /// RAP1B / Fold change vs veh, LOC101060439 /// RAP1B / RFU, RFX7 / Fold change vs veh, RFX7 / RFU, GTPBP10 / Fold change vs veh, GTPBP10 / RFU, CNEP1R1 / Fold change vs veh, CNEP1R1 / RFU, BIVM-ERCC5 /// ERCC5 / Fold change vs veh, BIVM-ERCC5 /// ERCC5 / RFU, ILF3 / Fold change vs veh, ILF3 / RFU 11762660_at / Fold change /veh 11762660_at / RFU VCAN (11757783_s_at) / Fold change /veh VCAN (11757783_s_at) / RFU DDX43 (11728927_at) / Fold change /veh DDX43 (11728927_at) / RFU KRT8 (11758188_x_at) / Fold change /veh KRT8 (11758188_x_at) / RFU NKD1 (11759106_at) / Fold change /veh NKD1 (11759106_at) / RFU SRD5A1 (11742802_a_at) / Fold change /veh SRD5A1 (11742802_a_at) / RFU TPSAB1 /// TPSB2 (11721975_s_at) / Fold change /veh TPSAB1 /// TPSB2 (11721975_s_at) / RFU GSTM3 (11746129_a_at) / Fold change /veh GSTM3 (11746129_a_at) / RFU IL23R (11737362_x_at) / Fold change /veh IL23R (11737362_x_at) / RFU TMEM51 (11727254_a_at) / Fold change /veh TMEM51 (11727254_a_at) / RFU PIWIL2 (11732686_x_at) / Fold change /veh PIWIL2 (11732686_x_at) / RFU ORM1 (11744905_x_at) / Fold change /veh ORM1 (11744905_x_at) / RFU CCDC152 (11743942_at) / Fold change /veh CCDC152 (11743942_at) / RFU ECM1 (11717891_a_at) / Fold change /veh ECM1 (11717891_a_at) / RFU IL23R (11748794_a_at) / Fold change /veh IL23R (11748794_a_at) / RFU TNFAIP8L3 (11732012_x_at) / Fold change /veh TNFAIP8L3 (11732012_x_at) / RFU MBOAT4 (11741988_at) / Fold change /veh MBOAT4 (11741988_at) / RFU 11764193_at / Fold change /veh 11764193_at / RFU TMEM53 (11763286_at) / Fold change /veh TMEM53 (11763286_at) / RFU MAGEB2 (11727129_at) / Fold change /veh MAGEB2 (11727129_at) / RFU TMEM200A (11744735_a_at) / Fold change /veh TMEM200A (11744735_a_at) / RFU CCDC152 (11751479_a_at) / Fold change /veh CCDC152 (11751479_a_at) / RFU FAM211A (11726209_a_at) / Fold change /veh FAM211A (11726209_a_at) / RFU RGS16 (11746705_a_at) / Fold change /veh RGS16 (11746705_a_at) / RFU VCAN (11755009_s_at) / Fold change /veh VCAN (11755009_s_at) / RFU RHOB (11743442_s_at) / Fold change /veh RHOB (11743442_s_at) / RFU RGS16 (11720943_a_at) / Fold change /veh RGS16 (11720943_a_at) / RFU RGS16 (11720944_at) / Fold change /veh RGS16 (11720944_at) / RFU, VPS4B / Fold change vs veh, VPS4B / RFU, CREB1 / Fold change vs veh, CREB1 / RFU, DNAJC13 / Fold change vs veh, DNAJC13 / RFU, GNAQ / Fold change vs veh, GNAQ / RFU, CDK5R1 / Fold change vs veh, CDK5R1 / RFU, ZRANB3 / Fold change vs veh, ZRANB3 / RFU, CUL4A / Fold change vs veh, CUL4A / RFU, CCNY / Fold change vs veh, CCNY / RFU, UFL1 / Fold change vs veh, UFL1 / RFU, COG3 / Fold change vs veh, COG3 / RFU, DIAPH2 / Fold change vs veh, DIAPH2 / RFU, SKA2 / Fold change vs veh, SKA2 / RFU, AFF3 / Fold change vs veh, AFF3 / RFU, LMF1 / Fold change vs veh, LMF1 / RFU, IPO11 / Fold change vs veh, IPO11 / RFU, DFFB / Fold change vs veh, DFFB / RFU, FOXP1 / Fold change vs veh, FOXP1 / RFU, CARD8 / Fold change vs veh, CARD8 / RFU, STRN3 / Fold change vs veh, STRN3 / RFU, ADK / Fold change vs veh, ADK / RFU, RASSF2 / Fold change vs veh, RASSF2 / RFU, WIPF1 / Fold change vs veh, WIPF1 / RFU, LARP1B / Fold change vs veh, LARP1B / RFU, RASA1 / Fold change vs veh, RASA1 / RFU, RB1 / Fold change vs veh, RB1 / RFU, PPFIA1 / Fold change vs veh, PPFIA1 / RFU, MAT2A / Fold change vs veh, MAT2A / RFU, CCT5 / Fold change vs veh, CCT5 / RFU, WDR92 / Fold change vs veh, WDR92 / RFU, CUX1 / Fold change vs veh, CUX1 / RFU, TTC7A / Fold change vs veh, TTC7A / RFU, TMEM135 / Fold change vs veh, TMEM135 / RFU, DEPTOR / Fold change vs veh, DEPTOR / RFU, CPM / Fold change vs veh, CPM / RFU, DNAJB6 / Fold change vs veh, DNAJB6 / RFU, CACNA2D3 / Fold change vs veh, CACNA2D3 / RFU, DTX4 / Fold change vs veh, DTX4 / RFU, TFCP2 / Fold change vs veh, TFCP2 / RFU, GMCL1 /// GMCL1P1 / Fold change vs veh, GMCL1 /// GMCL1P1 / RFU, AEBP2 / Fold change vs veh, AEBP2 / RFU, SNHG1 /// SNORD22 /// SNORD25 /// SNORD26 /// SNORD27 /// SNORD28 /// SNORD29 /// SNORD31 / Fold change vs veh, SNHG1 /// SNORD22 /// SNORD25 /// SNORD26 /// SNORD27 /// SNORD28 /// SNORD29 /// SNORD31 / Fold change (Aza/veh), C12orf56 (ProbeSet 11735607_a_at) / Fold change (ACY-1035/veh), C12orf56 (ProbeSet 11735607_a_at) / Fold change (Aza/veh), FGFR1OP (ProbeSet 11751329_s_at) / Fold change (ACY-1035/veh), FGFR1OP (ProbeSet 11751329_s_at) / Fold change (Aza/veh), VPS36 (ProbeSet 11739960_a_at) / Fold change (ACY-1035/veh), VPS36 (ProbeSet 11739960_a_at) / RFU SYPL1 (11715823_x_at) / Fold change /veh SYPL1 (11715823_x_at) / RFU IGFBP7 (11715501_s_at) / Fold change /veh IGFBP7 (11715501_s_at) / RFU REEP3 (11722064_at) / Fold change /veh REEP3 (11722064_at) / RFU IGLL1 (11728026_x_at) / Fold change /veh IGLL1 (11728026_x_at): dose or concentration left out as unconfirmed
Details: ProbeSet 11722463_a_at; LIST B

For `Nc1ccc(-c2cccs2)cc1NC(=O)c1ccc2c(c1)cc(C1CC1)n2CCN1CCOCC1` [ACY-1035], the “Fold change vs veh, TNKS2” value was 0.96.
